4 compounds from ChEMBL document CHEMBL5143672, “New diarylpentanoids and chalcones as potential antimicrobial adjuvants” (2022) can be followed below.

One test concerns Escherichia coli. Put plainly: Antibacterial activity against Escherichia coli ATCC 25922 assessed as inhibition of bacterial growth by broth microdilution method. It counts as functional.
Details: not given
In general terms: Broth dilution looks for growth in wells or tubes with falling amounts of substance.
As usually defined, the MIC is the lowest concentration found to suppress growth. Consider `COc1ccccc1/C=C1\CCc2ccccc2C1=O`, for which the MIC was more than 64 µg/mL.
Still for that read-out and setting: the value for `COc1cc(OC)c(OC)cc1/C=C1\Cc2ccccc2C1=O` was more than 64 µg/mL; that for `COc1ccccc1/C=C1\CCC/C(=C\c2ccccc2OC)C1=O` was more than 64 µg/mL; that for `O=C1/C(=C/c2ccc(Br)cc2)COC/C1=C\c1ccc(Br)cc1` was more than 64 µg/mL.

In the next test the test system is Pseudomonas aeruginosa. The test is described as follows: Antibacterial activity against Pseudomonas aeruginosa ATCC 27853 assessed as inhibition of bacterial growth by broth microdilution method. It is filed as functional.
Details: not given
In the case of `COc1ccccc1/C=C1\CCc2ccccc2C1=O`, the MIC is more than 64 µg/mL.
The same measure, in the same setting: in the case of `COc1cc(OC)c(OC)cc1/C=C1\Cc2ccccc2C1=O` it was more than 64 µg/mL; in that of `COc1ccccc1/C=C1\CCC/C(=C\c2ccccc2OC)C1=O`, more than 64 µg/mL; in that of `O=C1/C(=C/c2ccc(Br)cc2)COC/C1=C\c1ccc(Br)cc1`, more than 64 µg/mL.

Another test deals with Salmonella typhimurium. The test is described as follows: Antibacterial activity against Salmonella enterica serovar typhimurium SL1344 (SE03) assessed as inhibition of bacterial growth by broth microdilution method. It is filed as functional, Salmonella enterica subsp. enterica serovar Typhimurium.
Details: not given
In the case of `COc1ccccc1/C=C1\CCc2ccccc2C1=O`, the MIC is more than 64 µg/mL.
The same measure, in the same setting: the value for `COc1cc(OC)c(OC)cc1/C=C1\Cc2ccccc2C1=O` was more than 64 µg/mL; that for `COc1ccccc1/C=C1\CCC/C(=C\c2ccccc2OC)C1=O` was more than 64 µg/mL.
Still for that read-out and setting: the value for `O=C1/C(=C/c2ccc(Br)cc2)COC/C1=C\c1ccc(Br)cc1` was more than 64 µg/mL.

In another test the test system is Staphylococcus aureus. Put plainly: Antibacterial activity against Staphylococcus aureus ATCC 25923 assessed as inhibition of bacterial growth by broth microdilution method.
Details: not given
It is filed as functional.
Take `COc1ccccc1/C=C1\CCc2ccccc2C1=O`: the MIC was more than 64 µg/mL.
As for `COc1cc(OC)c(OC)cc1/C=C1\Cc2ccccc2C1=O`, the MIC was more than 64 µg/mL.
In the case of `COc1ccccc1/C=C1\CCC/C(=C\c2ccccc2OC)C1=O`, the MIC is more than 64 µg/mL.
Still for that read-out and setting: the value for `O=C1/C(=C/c2ccc(Br)cc2)COC/C1=C\c1ccc(Br)cc1` was more than 64 µg/mL.

A further test relates to Enterococcus faecalis. The test is described as follows: Antibacterial activity against Enterococcus faecalis ATCC 29212 assessed as inhibition of bacterial growth by broth microdilution method. It is filed as functional.
Details: not given
Turning to `COc1ccccc1/C=C1\CCc2ccccc2C1=O`, the minimal inhibitory concentration (MIC) is more than 64 µg/mL.
With `COc1cc(OC)c(OC)cc1/C=C1\Cc2ccccc2C1=O`, the MIC was more than 64 µg/mL.
As for `COc1ccccc1/C=C1\CCC/C(=C\c2ccccc2OC)C1=O`, the MIC was more than 64 µg/mL.
In the case of `O=C1/C(=C/c2ccc(Br)cc2)COC/C1=C\c1ccc(Br)cc1`, the MIC was more than 64 µg/mL.

A further test relates to Staphylococcus aureus. Put plainly: Antibacterial activity against methicillin and ofloxacin-resistant Staphylococcus aureus 272123 assessed as inhibition of bacterial growth by broth microdilution method. It counts as functional.
Details: not given
With `COc1ccccc1/C=C1\CCc2ccccc2C1=O`, the MIC was more than 64 µg/mL.
Still for that read-out and setting: in the case of `COc1cc(OC)c(OC)cc1/C=C1\Cc2ccccc2C1=O` it was more than 64 µg/mL; in that of `COc1ccccc1/C=C1\CCC/C(=C\c2ccccc2OC)C1=O`, more than 64 µg/mL.
Still for that read-out and setting: in the case of `O=C1/C(=C/c2ccc(Br)cc2)COC/C1=C\c1ccc(Br)cc1` it was more than 64 µg/mL.

For another test, the system named is Candida albicans. Put plainly: Antifungal activity against Candidia albicans ATCC 10231 assessed as inhibition of fungal growth by broth microdilution method. It is filed as functional.
Details: not given
Consider `COc1ccccc1/C=C1\CCc2ccccc2C1=O`, for which the MIC was more than 128 µg/mL.
Still for that read-out and setting: the value for `COc1cc(OC)c(OC)cc1/C=C1\Cc2ccccc2C1=O` was more than 128 µg/mL.
The same measure, in the same setting: the value for `COc1ccccc1/C=C1\CCC/C(=C\c2ccccc2OC)C1=O` was more than 128 µg/mL; that for `O=C1/C(=C/c2ccc(Br)cc2)COC/C1=C\c1ccc(Br)cc1` was more than 128 µg/mL.

A further test deals with Aspergillus fumigatus. The test is described as follows: Antifungal activity against Aspergillus fumigatus ATCC 204305 assessed as inhibition of fungal growth by broth microdilution method. It is filed as functional.
Details: not given
Turning to `COc1ccccc1/C=C1\CCc2ccccc2C1=O`, the MIC was more than 128 µg/mL.
On the same count and under the same terms, the value for `COc1cc(OC)c(OC)cc1/C=C1\Cc2ccccc2C1=O` was more than 128 µg/mL; that for `COc1ccccc1/C=C1\CCC/C(=C\c2ccccc2OC)C1=O` was more than 128 µg/mL.
Same read-out and setting: the value for `O=C1/C(=C/c2ccc(Br)cc2)COC/C1=C\c1ccc(Br)cc1` was more than 128 µg/mL.

A further test relates to Trichophyton rubrum. The test is described as follows: Antifungal activity against Trichophyton rubrum FF5 assessed as inhibition of fungal growth by broth microdilution method. It counts as functional.
Details: not given
Take `COc1ccccc1/C=C1\CCc2ccccc2C1=O`: the MIC was more than 128 µg/mL.
The same measure, in the same setting: in the case of `COc1cc(OC)c(OC)cc1/C=C1\Cc2ccccc2C1=O` it was more than 128 µg/mL; in that of `COc1ccccc1/C=C1\CCC/C(=C\c2ccccc2OC)C1=O`, more than 128 µg/mL; in that of `O=C1/C(=C/c2ccc(Br)cc2)COC/C1=C\c1ccc(Br)cc1`, more than 128 µg/mL.

For the next test, the system named is Escherichia coli. The test is described as follows: Antimicrobial adjuvant activity against ESBL-producing Escherichia coli SA/2 assessed as potentiation of cefotaxime-induced antibacterial activity by measuring fold reduction in cefotaxime MIC at 64 ug/ml by broth microdilution method. It counts as functional. The note with it: dose 64 µg/ml.
Regarding `COc1ccccc1/C=C1\CCc2ccccc2C1=O`, the “fold change (FC)” value is on record as 2.
The same measure, in the same setting: in the case of `COc1cc(OC)c(OC)cc1/C=C1\Cc2ccccc2C1=O` it was 2; in that of `O=C1/C(=C/c2ccc(Br)cc2)COC/C1=C\c1ccc(Br)cc1`, 8.

The subject of the next test is Enterococcus faecalis. The test is described as follows: Antimicrobial adjuvant activity against Enterococcus faecalis B3/101 assessed as potentiation of vancomycin-induced antibacterial activity by measuring fold reduction in vancomycin MIC at 64 ug/ml by broth microdilution method. It is filed as functional. To be noted: dose 64 µg/ml.
`COc1ccccc1/C=C1\CCc2ccccc2C1=O`: the “fold change (FC)” value is 2.
Same read-out and setting: in the case of `COc1cc(OC)c(OC)cc1/C=C1\Cc2ccccc2C1=O` it was 2.
Still for that read-out and setting: in the case of `COc1ccccc1/C=C1\CCC/C(=C\c2ccccc2OC)C1=O` it was 2.

Another test has as its system Salmonella enterica subsp. enterica serovar Typhimurium. The test is described as follows: Inhibition of Multidrug resistance efflux pump in Salmonella enterica serovar typhimurium SL1344 (SE03) assessed as relative fluorescence index using ethidium bromide as substrate at 50 uM by fluorescence based analysis.
Details: not given
As for `COc1ccccc1/C=C1\CCc2ccccc2C1=O`, the RFU amounted to 1.32.
The same measure, in the same setting: the value for `COc1cc(OC)c(OC)cc1/C=C1\Cc2ccccc2C1=O` was 0.11.
Same read-out and setting: in the case of `COc1ccccc1/C=C1\CCC/C(=C\c2ccccc2OC)C1=O` it was -0.31; in that of `O=C1/C(=C/c2ccc(Br)cc2)COC/C1=C\c1ccc(Br)cc1`, 0.06.

Test system in another test: not listed separately
Put plainly: Inhibition of Multidrug resistance efflux pump in Staphylococcus aureus 272123 assessed as relative fluorescence index using ethidium bromide as substrate at 50 uM by fluorescence based analysis.
Details: not given
Turning to `COc1ccccc1/C=C1\CCc2ccccc2C1=O`, the RFU amounted to 0.88.
The same measure, in the same setting: in the case of `COc1cc(OC)c(OC)cc1/C=C1\Cc2ccccc2C1=O` it was -0.34; in that of `COc1ccccc1/C=C1\CCC/C(=C\c2ccccc2OC)C1=O`, 0.48.
Consider `O=C1/C(=C/c2ccc(Br)cc2)COC/C1=C\c1ccc(Br)cc1`, for which the RFU was determined as 0.53.

The next test deals with Staphylococcus aureus. The test is described as follows: Inhibition of biofilm formation in Staphylococcus aureus ATCC 25923 at 100 uM incubated for 48 hrs by crystal violet staining based analysis. It counts as functional.
Details: not given
As a reminder, the inhibition is how much of the control response was suppressed. Read a high inhibition as strong suppression. On to `COc1ccccc1/C=C1\CCc2ccccc2C1=O`, for which the inhibition at 100 µM was 0%.
Still for that read-out and setting: in the case of `COc1ccccc1/C=C1\CCC/C(=C\c2ccccc2OC)C1=O` it was 0%; in that of `O=C1/C(=C/c2ccc(Br)cc2)COC/C1=C\c1ccc(Br)cc1`, 0%.

The next test relates to Staphylococcus aureus. The test is described as follows: Inhibition of biofilm formation in Staphylococcus aureus 272123 at 100 uM incubated for 48 hrs by crystal violet staining based analysis. It is filed as functional.
Details: not given
Take `COc1ccccc1/C=C1\CCc2ccccc2C1=O`: the inhibition at 100 µM worked out at 83.3%.
The same measure, in the same setting: in the case of `COc1ccccc1/C=C1\CCC/C(=C\c2ccccc2OC)C1=O` it was 65.9%; in that of `O=C1/C(=C/c2ccc(Br)cc2)COC/C1=C\c1ccc(Br)cc1`, 51.2%.

Test system in a further test: not listed separately
Put plainly: Inhibition of quorum sensing system in Chromobacterium violaceum wild type 85 assessed as reduction in pigment production incubated for 24 to 48 hrs. To be noted: time 24-48 hrs.
As to `COc1ccccc1/C=C1\CCc2ccccc2C1=O`, the Activity was found to be 0 mm.
The same measure, in the same setting: the value for `COc1ccccc1/C=C1\CCC/C(=C\c2ccccc2OC)C1=O` was 0 mm.
Same read-out and setting: in the case of `O=C1/C(=C/c2ccc(Br)cc2)COC/C1=C\c1ccc(Br)cc1` it was 0 mm.

The subject of another test is Serratia marcescens. The test is described as follows: Inhibition of quorum sensing system in Serratia marcescens AS-1 assessed as reduction in pigment production incubated for 24 to 48 hrs. The note with it: time 24-48 hrs.
In the case of `COc1ccccc1/C=C1\CCc2ccccc2C1=O`, the Activity was determined as 0 mm.
Same read-out and setting: in the case of `COc1ccccc1/C=C1\CCC/C(=C\c2ccccc2OC)C1=O` it was 0 mm; in that of `O=C1/C(=C/c2ccc(Br)cc2)COC/C1=C\c1ccc(Br)cc1`, 0 mm.

Test system in another test: not listed separately
Put plainly: Inhibition of quorum sensing system in Chromobacterium violaceum CV026 assessed as reduction in pigment production co-cultured with Sphingomonas paucimobilis Ezf 10-17 for 24 to 48 hrs. To be noted: time 24-48 hrs.
Take `COc1ccccc1/C=C1\CCc2ccccc2C1=O`: the Activity came out at 48 mm.
Same read-out and setting: the value for `COc1ccccc1/C=C1\CCC/C(=C\c2ccccc2OC)C1=O` was 0 mm.
Still for that read-out and setting: the value for `O=C1/C(=C/c2ccc(Br)cc2)COC/C1=C\c1ccc(Br)cc1` was 0 mm.
